According to patent publication US11649218B2, “C-Abl tyrosine kinase inhibitory compound embodiments and methods of making and using the same” (The USA, as represented by the Secretary, Dept. of Health …, priority 2018, dated 2023):
“And” between values parts separate entries of the source, which are not always exact repeats. Equal entries are not always repeated. Each block holds one compound with its values, some of them ahead of it.

Assays:
Leukemia K562 cell = Leukemia K562 cell proliferation/viability assay (CellTiterGlo, 48 hours); format: cell-based; design: unit not given here; conditions: K562 cells
Description: C-Abl is encoded by the ABL1 gene (NCBI Gene ID NO. 25). […] Assays for determining if a small molecule inhibits c-Abl activity are known. Non-limiting examples include cell proliferation assays using cancer cells that are BCR-Abl positive and depend on BCR-Abl for growth, such as the leukemia cell line K562. […] In some embodiments described herein, compounds are tested for ability to reduce K562 cell proliferation in an HTS adapted assay which measures cell viability using the reagent CellTiterGlo after 48 hours treatment.

[1] = system: P. falciparum strain NF54 asexual parasites; assay: Asexual stage parasite growth inhibition, SYBR Green assay, 72 hours; format: cell-based; conditions: for % Killing / IC50: NF54, 72 hours; for IC50: Plasmodium falciparum
Description: In this example, several of the c-Abl inhibitors were tested in the asexual […] strain of P. falciparum parasites for activity against malaria. […] The pre-diluted parasites were dispensed into a 1536-well plate (2.5 μL/well). […] The fluorescence of each well was measured at 520 nm following excitation at 490 nm using a ViewLux platereader (PerkinElmer).

[2] = system: ShSy5y neuroblastome cells; assay: Cholesterol accumulation induced by U18666, Filipin or PFO-GST staining; format: cell-based; conditions: U18 0.5 μg/ml 24 hours; NCGC00373060 0.1 and 0.01 μM, Imatinib 10 uM
Description: Cells were fixed and then stained with Filipin Staining. […] Cells were fixed and a PFO-GST immunofluorescence was performed.

neurons = assay: Apoptotic nuclei induced by Aβ fibrils, Hoescht staining; format: cell-based
Description: Additional results from another compound embodiment, NCGC00355553, are provided by FIG. 9C. Apoptotic nuclei were evaluated by Hoescht staining.

[3] = Blood and serum analysis after one month of supplemented diet; format: in vivo, mice (C57BL/6×C3H); conditions: 1 month diet (Nilotinib 200 ppm; NCGC00373060 67 ppm), individual mice
Text: After this one-month period, blood and serum was obtained from the mice and analyzed.

[4] = Body weight during supplemented diet in TLE mice study; format: in vivo, mice (C57BL/6)
Description: (§1) In this example, the ability of compound embodiments of the present disclosure to increase survival and diminish seizure symptoms in a TLE mice model was evaluated. […] The animals' weights were determined the week before and during the two weeks of c-Abl inhibitors treatment (results are provided in Table 12 and are illustrated graphically in FIG. 28). After 15 days of feeding, status epilepticus (SE) induction was evaluated. The mice were IP injected with Scopolamine (1.5 mg/Kg) and after 15 minutes, the SE was induced by IP injection of Pilocarpine (420 mg/Kg). The animals' behavior and the seizures induction was evaluated according to Racine's scale and the survival was determined during 60 minutes post-SE induction. […] Results are tabulated in Table 13, below and also are illustrated graphically in FIGS. 29A-29D.

TLE mice model = assay: Pilocarpine-induced status epilepticus (SE) after 15 days of supplemented diet; format: in vivo, mice (C57BL/6); design: Survival % / Survival %, mean: concentration or dose not given beside the values
Description: as §1

APP/PSEN1 mice = assay: APP/PSEN1 AD mice model, water maze, Barnes maze and brain histology; conditions: water maze
Description: The Barnes maze test is a more sensible test that detects the earlier and subtle cognitive alterations.

CML (K562) cell line = assay: K562 cell proliferation inhibition by MTT assay, 48 hours; format: cell-based; conditions: K562, 48 hours
Description: In this example, the ability of two compound embodiments described here, NCGC00373060 and NCGC00373056, to induce cell death in the CML (K562) cell line was evaluated. The leukemia cells were incubated with different concentrations of the compounds for 48 hours, and the cell proliferation inhibition was evaluated by the MTT assay. […] The leukemia cells were incubated with different concentrations of each compound embodiment for 48 hours, and the cell proliferation inhibition was evaluated by the MTT assay.

[5] = Pharmacokinetic profile in plasma; format: in vivo, mice; conditions: 12.5 mg/kg IP
[6] = Pharmacokinetic profile in brain; format: in vivo, mice; conditions: 12.5 mg/kg IP
hippocampal neurons = assay: Neuroprotection against Aβ fibrils, MTT assay; format: cell-based; conditions: 0.01, 0.1 and 1 μM; 5 μM Aβ peptide, 24 hours
Description: Compound embodiments NCGC00373060 and NCGC00373056 also conferred neuroprotection against Aβ fibrils. […] Additional data from other compounds are provided by FIGS. 8C-8E. Neurons were incubated with 5 μM Aβ peptide in presence of the different compound concentrations for 24 hours and cell viability was evaluated by the MTT assay. Results from additional compounds are provided by FIG. 8C.

5XFAD mice = assay: 5XFAD AD mice model, water maze and amyloid burden; format: in vivo; conditions: 9-month-old 5XFAD mice, 12.5 mg/kg daily for 30 days, IP
Text: . First, the 5XFAD mice was used as the AD model. […] .

[7] = individual mice, diet 67 ppm NCGC00373060 or 200 ppm Nilotinib
[8] = mean, diet 67 ppm NCGC00373060 or 200 ppm Nilotinib

Compound: Cc1ccc(NC(=O)c2ccc(CN3CCN(C)CC3)cc2)cc1Nc1nccc(-c2cccnc2)n1 [Imatinib]
- Efficacy (Leukemia K562 cell): −105.5
- % Killing [1]: 111.0%
- cholesterol accumulation [2]: decreased the cholesterol accumulation

Compound: O=C1Nc2cc(OC(F)(F)F)ccc2Nc2ccc(-c3cn[nH]c3)cc21 [NCGC00355553, 2-(1H-Pyrazol-4-yl)-8-(trifluoromethoxy)-5,10-dihydro-1-dibenzo[b,e][1,4]diazepin-11-one]
- apoptotic nuclei induced by Aβ fibrils (neurons): prevent increases in apoptotic nuclei induced by Aβ fibrils

Compound: Cc1cn(-c2cc(NC(=O)c3ccc(C)c(Nc4nccc(-c5cccnc5)n4)c3)cc(C(F)(F)F)c2)cn1 [Nilotinib]
- Efficacy (Leukemia K562 cell): −86.5
- % Killing [1]: 98.7%
- IC50 [1]: 648 nM
- ALT [3]: 36.0 IU/L and 26.0 IU/L
- AST [3]: 142.0 IU/L and 114.0 IU/L
- Alkaline phosphatase [3]: 386.4 IU/ and 278.2 IU/
- Bacilliformes [3]: 0 µL⁻¹
- Bacilliformres (%) [3]: 0%
- Blastos [3]: 0 µL⁻¹
- Blood urea nitrogen [3]: 19.7 mg/dL and 18.2 mg/dL
- C.H.C.M. [3]: 29.3 g/dL and 28.9 g/dL
- Calcium [3]: 10.4 mg/dL and 10.2 mg/dL
- Creatinine [3]: 1.0 mg/dL and 0.8 mg/dL
- Eosinophils [3]: 32 µL⁻¹ and 0 µL⁻¹
- Eosinophils (%) [3]: 1% and 0%
- Erythrocytes [3]: 5.9e+06 µL⁻¹ and 8.6e+06 µL⁻¹
- Glucose (without fluoride) [3]: 84.0 mg/dL and 56.0 mg/dL
- H.C.M. [3]: 14.9 pg/cel and 14.7 pg/cel
- Hematocrit [3]: 30.0% and 43.6%
- Hemoglobin [3]: 8.8 g/dL and 12.6 g/dL
- Juvenile [3]: 0 µL⁻¹
- Leukocytes [3]: 3,200 /μL and 3,300 /μL
- Lymphocytes (%) [3]: 60% and 62%
- Mean platelet vol. [3]: 6.9 fL and 6.1 fL
- Monocytes (%) [3]: 4% and 15%
- Morphology leukocytes [3]: Normal
- Myelocytes [3]: 0 µL⁻¹
- Reticulocytes (%) [3]: 0.5% and 0.6%
- Reticulocytes (×10^3/μL) [3]: 29.6 ×10^3/μL and 51.3 ×10^3/μL
- Segmented [3]: 759 µL
- Segmented (%) [3]: 35% and 23%
- Segmented (μL) [3]: 1,120 μL
- Thrombocyte morphology [3]: Normal
- Thrombocytes [3]: 780,000 /μL and 689,000 /μL
- Total cholesterol [3]: 114.0 mg/dL and 84.0 mg/dL
- V.C.M. [3]: 50.8 fL and 51.0 fL
- V.H.S. [3]: 3.0 and 6.0
- Weight [3]: 42.7 g and 25.2 g
- Youth (%) [3]: 0%
- Lymphocytes ([3]; absolute count): 1,920 and 2,046
- Monocytes ([3]; absolute count): 128 and 495
- Body weight week 4 [4, 7]: 17 gr (2×) and 19 gr and 15 gr (2×) and 14 gr (2×) and 18 gr (2×)
- Body weight week 5 [4, 7]: 18 gr (3×) and 21 gr and 17 gr and 19 gr and 16 gr and 20 gr (2×)
- Body weight week 3 ([4]; individual mice, week before diet (67 ppm NCGC00373060 or 200 ppm Nilotinib)): 15 gr (2×) and 18 gr and 11 gr and 9 gr (2×) and 12 gr and 14 gr and 16 gr
- Body weight week 4, mean [4, 8]: 16 gr
- Body weight week 5, mean [4, 8]: 19 gr
- Body weight week 3, mean ([4]; mean, week before diet (67 ppm NCGC00373060 or 200 ppm Nilotinib)): 13 gr
- Survival % (TLE mice model; individual mice, 60 minutes post-SE induction): 100%
- Latency SE (TLE mice model; [7]): 30 min and 22 min
- Survival %, mean (TLE mice model; mean, 60 minutes post-SE induction): 100%
- Latency SE, mean (TLE mice model; [8]): 26 min
- SE %, mean (TLE mice model; [8]): 40%

Compound: CS(=O)(=O)Nc1cccc(-c2ccc3c(c2)C(=O)Nc2cc(OC(F)(F)F)ccc2N3)c1 [NCGC00355551, N-(3-(11-Oxo-8-(trifluoromethoxy)-10,11-dihydro-5H-dibenzo[b,e][1,4]diazepin-2-yl)phenyl)methanesulfonamide]
- Efficacy (Leukemia K562 cell): −85.3
- cognitive decline in APP/PSEN1 mice (APP/PSEN1 mice): protects APP/PSEN1 mice against cognitive decline

- IC50 [1]: 1360 nM
- Plasma concentration ([5]; Time 0.083): 12.080 µM
- Plasma concentration ([5]; Time 0.25): 16.961 µM
- Plasma concentration ([5]; Time 0.5): 16.559 µM
- Plasma concentration ([5]; Time 1): 8.627 µM
- Plasma concentration ([5]; Time 2): 6.747 µM
- Plasma concentration ([5]; Time 4): 2.600 µM
- Plasma concentration ([5]; Time 7): 0.421 µM
- Plasma concentration ([5]; Time 24): 0.009 µM
- Brain concentration ([6]; Time 0.083): 1.291 µmol/kg
- Brain concentration ([6]; Time 0.25): 2.649 µmol/kg
- Brain concentration ([6]; Time 0.5): 2.658 µmol/kg
- Brain concentration ([6]; Time 1): 3.381 µmol/kg
- Brain concentration ([6]; Time 2): 2.212 µmol/kg
- Brain concentration ([6]; Time 4): 1.065 µmol/kg
- Brain concentration ([6]; Time 7): 0.202 µmol/kg
- Brain concentration ([6]; Time 24): 0.004 µmol/kg
Compound: CNS(=O)(=O)c1cccc(-c2ccc3c(c2)C(=O)Nc2cc(OC(F)(F)F)ccc2O3)c1 [NCGC00373056, N-Methyl-3-(11-oxo-8-(trifluoromethoxy)-10H-dihydrodibenzo[b,f][1,4]oxazepin-2-yl)benzenesulfonamide]
- Efficacy (Leukemia K562 cell): −78.5
- AC50 (CML (K562) cell line; Homo sapiens, determined in different assays): 500 nM
- induction of cell death (CML (K562) cell line; MTT): able to induce cell death
- activity against malaria parasites ([1]; NF54): low single digit uM range
- % Killing [1]: 96.5%
- neuroprotection against Aβ toxicity (hippocampal neurons): protect neurons against the Aβ toxicity
- apoptotic nuclei induced by Aβ fibrils (neurons): prevention of the increases in apoptotic nuclei induced by Aβ fibrils
- cognitive decline, water maze (5XFAD mice): protected 5XFAD mice against the cognitive decline
